Laboratory results reported in paper PMC10877577 (ACS Chemical Biology, 2024).

What was measured:
[1] = tested on: HEK-293T transduced with the aMinoC1 transmembrane receptor; test: Flow cytometry of peptide-muIgG2a Fc binding to cells with aMinoC1 transmembrane receptor; type: cell-based, human; conditions: GWARA, HWAQA, PWAYS, QWAMM, increasing minocycline, caffeine 100 μM
Description: Flow cytometry was performed using the MACSQuant Analyzer 10 or MACSQuant X (Miltenyi Biotec). All flow cytometry data was analyzed using FlowJo v.7.6.2 software (Tree Star Inc., Ashland, OR). Cell staining was carried out by incubation with PBS containing the recommended concentration of antibodies at RT for 30 min. PBS washes were carried out between antibody staining. Cell viability was determined using viability dye SYTOX Blue Dead Cell Stain (ThermoFisher) prior to flow cytometric analysis. Cells were first gated for singlet population identified by FSC-H and FSC-A. Next, live cells were identified using a viability dye, followed by gating for target cell populations. The antibodies used in the study are as follows: CD3 PECy7 (Biolegend, 317334), Human CD34 APC-conjugated antibody (R&D system, FAB7227A), Human CD34 Alexa Fluor 488-conjugated antibody (R&D system, FAB7227G), Streptavidin PE (Biolegend, 405204), APC antihuman EGFR antibody (Biolegend, 352905), Alexa Fluor 488 antihuman EGFR antibody (Biolegend, 352907), PE anti-HA.11 Epitope Tag antibody (Biolegend, 901517), Anti-M13-HRP (Sino Biologics, 1197 mm05T-H), Anti-Myc-HRP (Genscript, A00863), and SYTOX Blue Dead Cell Stain (ThermoFisher, S10274).

[2] = tested on: MinoCAR-transduced PBMC against SupT1-EGFR+ target cells; test: Cytokine release of MinoCAR PBMCs; type: cell-based, human; conditions: minocycline supplementation, 24 h, 1:2 E/T
Description: (§1) Transduced CAR T cells were determined by staining for the transduction marker RQR8 and normalized by the addition of nontransduced T cells. Effector cells were cocultured with 5.0 × 10^4 number of target cells (SupT1-NT, SupT1-EGFR+, SKOV3-mKate) to achieve the desired effector cell to target ratio. Where appropriate, minocycline was supplemented as a part of the culture conditions. Cocultures were incubated for 24–72 h at 37 °C and 5% CO2. After incubation, plates were centrifuged at 400g for 5 min, and the supernatant containing secreted cytokines was collected for cytokine analysis. Cells were stained with anti-hCD34-APC and anti-CD3-PeCy7 to differentiate effector T cells and target cells. Cells were washed with 300 μL o PBS and stained with SYTOX Blue Dead Cell Stain dye. The percentage of target cell survival was measured relative to the number of live target cells cocultured with nonspecific CAR T cells or nontransduced PBMCs.
IFN-γ, IL2, and IL12 secretion was measured by collecting the supernatant from the respective cell-based assay and frozen at −20 °C prior to analysis by ELISA. IFN-γ, IL2, and IL12 ELISAs were carried out using the Human IFN-γ ELISA MAX Deluxe kit, Human IL2 ELISA MAX Deluxe kit, and Human IL12 (p70) ELISA MAX Deluxe kit in accordance with the manufacturer’s instructions (BioLegend).

[3] = tested on: MinoUniCAR-transduced PBMCs against SupT1-EGFR+ cells; test: MinoUniCAR cytotoxicity with EGFR-peptide adaptor; type: cell-based, human; conditions: 10 μM minocycline, 24 h, 1:2 E/T
Description: as §1
Transduced PBMCs were stained using RQR8 expression and V5 markers. Cells were then normalized to 50% efficiency by diluting with nontransduced T cells. The tumor-targeting adaptor protein (EGFR sdAb) fused to the GWARA peptide was separately expressed by CHO cell transient transfection and purified by His-tag chromatography. […] IFN-γ secretion was measured as described above.

[4] = in vivo; cited from earlier work

CN(C)c1ccc(O)c2c1C[C@H]1C[C@H]3[C@H](N(C)C)C(O)=C(C(N)=O)C(=O)[C@@]3(O)C(O)=C1C2=O [minocycline]
peptide-muIgG2a Fc binding to membrane-bound aMinoC1 in presence of small molecule [1]: Dose-dependent reduction of peptide-muIgG2a Fc binding | peptide-muIgG2a Fc binding to membrane-bound aMinoC1 in presence of small molecule ([1]; listed as Minocycline): concentration-dependent reduction in peptide binding | reduction (minus) of IFN-γ secretion [2]: 2.7 fold | reduction (minus) of IL2 secretion [2]: 1.9 fold | target cell survival [3]: 95% | blood–brain barrier crossing [4]: can cross the blood–brain barrier | half-life in blood [4]: 12 to 24 h | time of serum concentration peak [4]: 2 to 3 h
